Data on 3 compounds can be found in patent US20070212707A1, “CELL CYCLE MARKERS” (GE HEALTHCARE UK LIMITED, priority 2004, published 2007).

The structures appear in SMILES notation. “Also recorded” adds a separate entry of the source.

In test [1] the test system is CRM1-mediated nuclear export. The test is described as follows: Nuclear export block: subcellular localization of GFP-HDHB and FLAG-HDHB with or without LMB. Particulars: asynchronous, G1 and S phase U2OS cells; 10 ng/ml LMB with 10 μM cycloheximide, 3 h. Type of test: cell-based, human.
Procedure: In experiments to block nuclear protein export, cells were cultured for 3 h in DMEM containing 10 ng/ml of leptomycin B (LMB) (gift from Dr. M. Yoshida) and 10 μM cycloheximide (Calbiochem, San Diego, Calif.) to prevent new protein synthesis. Cells plated on glass coverslips were microinjected as described (Herbig et al., 1999) except that plasmid DNA rather than protein was injected.
To assess whether the putative NES in HDHB was functional, we mutated Val/Leu and Leu/Leu of the NES motif to alanine to create NES mutants 1 and 2 (FIG. 6A). GFP-HDHB and GFP-βGal-PSLD harboring these NES mutations were transiently expressed in either asynchronous or synchronized U2OS cells.
Test [2] concerns U2OS cells transiently expressing GFP-HDHB. The test can be described thus: DNA damage response assay: GFP-HDHB nuclear focus formation. The note with it: 20 μM etoposide, 10 μM camptothecin or 1 μM mitomycin C, 20 h, DMSO control, Triton X-100 extraction. Type of test: cell-based, human. As to the method:
U2OS cells (80-90% confluent) were transfected with pGFP-HDHB according to the manufacturer's protocol (Lipofectamine 2000, Invitrogen). […] After 20 h, cells were extracted with Triton X-100 buffer and then fixed for immunofluorescence as described above. Distinctive GFP-HDHB nuclear foci were counted in more than 100 cells in each independent assay.
Moreover, DNA damage induces nuclear foci that are thought to contain damage-sensing and -processing proteins (Nelms et al., Science, (1998) 280, 590-592; van den Bosch et al. EMBO Rep., (2003), 4, 844-849).

As to `CCC(=C/[C@H](C)C/C=C/C(C)=C/[C@@H](C)C(=O)[C@@H](C)[C@H](O)[C@@H](C)C/C(C)=C/C(=O)O)/C=C/[C@@H]1OC(=O)C=C[C@@H]1C` [LMB, leptomycin B], the “subcellular localization of GFP-HDHB and FLAG-HDHB fusion proteins in the presence of LMB” value in test [1] is on record as “both fusion proteins accumulated in the nucleus independently of the cell cycle”. With `CO[C@@]12[C@H](COC(N)=O)C3=C(C(=O)C(C)=C(N)C3=O)N1C[C@@H]1N[C@@H]12` [Mitomycin C, mitomycin C], the “number of large GFP-HDHB nuclear foci per cell compared to the control” value in test [2] is given as “little effect”. On the same count and under the same terms, for `CC[C@@]1(O)C(=O)OCc2c1cc1n(c2=O)Cc2cc3ccccc3nc2-1` [camptothecin] the value was “more than doubled; also recorded: induced many more HDHB nuclear foci”.
